# Experimental data taken from patent publication EP0432309B1, “Sugar derivatives, process for their preparation and their use” (Laevosan-Gesellschaft m.b.H., priority 1989, dated 1991).
# Assays:
# [1] = system: humanen Ovarialkarzinom-Zellkultur (HOC-7); assay: human tumour cloning assay (HTCA): clonal growth of single malignant cells in semisolid media, colonies counted after 21 days; format: cell-based; conditions: for Kolonienüberleben: HOC-7, 21 days; for antiproliferative/cytotoxische Wirkung: HOC-7, HTCA, result in words
# Source text: Zur Prüfung auf ihre antiproliferativen/cytotoxischen Eigenschaften wurden die erfindungsgemäßen Verbindungen der Formel I und II mittels einer humanen Ovarialkarzinom-Zellkultur (HOC-7) getestet, wobei als Testsystem der sogenannte human tumour cloning assay (HTCA) herangezogen wurde, ein System, in dem das klonale Wachstum maligner Einzelzellen in semisoliden Medien selektiv erfaßt wird (vgl. S. Hamburger, Science 197, (1977), 461). Dabei zeigten die Verbindungen eine überraschend hohe antiproliferative/cytotoxische Wirkung.
# Das in Beispiel 1 hergestellte 3-DGP sowie DGP-DA von Beispiel 2 wurden hinsichtlich ihrer antiproliferativen/cytotoxischen Eigenschaften mittels einer humanen Ovarialkarzinom-Zellkultur (HOC-7) getestet, wobei als Testsystem der sogenannte human tumour cloning assay (HTCA) herangezogen wurde, ein System, in dem das klonale Wachstum maligner Einzelzellen in semisoliden Medien selektiv erfaßt wird (vgl. S. Hamburger, Science 197, (1977), 461).
# Je eine wäßrige Lösung von 3-DGP und DGP-DA wurde in folgender Verdünnungsreihe getestet.
# wobei sowohl ein […] (in Form von HgCl₂) als auch ein Ansatz mit Lösungsmittel (Aqua bidest) mitgeführt wurde.
# Die Kulturen wurden bei 37°C, 5 % CO₂, 100 % Luftfeuchtigkeit 21 Tage inkubiert, danach wurden die Kultursysteme aufgearbeitet, wobei die gewachsenen Kolonien (Klone) unter dem Mikroskop ausgezählt wurden.
# Als Wirksamkeit der getesteten Lösung wurde ein Kolonienüberleben < 50 % der Kontrolle definiert.
# [2] = stability / hydrolysis in aqueous solution; format: physicochemical; conditions: result in words
# Method: Aus den geeigneten Fraktionen kann hochgereinigte 3-DGP als farbloser, nicht kristallisierender Sirup erhalten werden. Da die Substanz unter wasserfreien oder wasserarmen Bedingungen zur Bildung von dimeren Anhydriden neigt, ist es zweckmäßig, sie als etwa 50 %ige wäßrige Lösung herzustellen und aufzubewahren. […] Erhöhung der Temperatur und Absenken des pH-Wertes beschleunigen diese Zersetzung. Für die Aufbewahrung ist es daher zweckmäßig, Temperaturen von ≦ 4°C und pH-Werte zwischen 5 und 6 einzuhalten. In solchen Lösungen liegt offenbar ein Gemisch der alpha- und beta-Furanosen und des offenkettigen Ketozuckers vor.
# Die Glycoside bilden sich außerordentlich leicht aus den Lösungen von 3-DGP in den entsprechenden Alkoholen in Gegenwart sehr geringer Mengen an Säure oder Ionenaustauscher in der H⁺-Form als Katalysator bereits nach kurzer Behandlung bei Raumtemperatur. Ebenso leicht tritt in wäßriger Lösung Hydrolyse der Glycoside ein, so daß unter physiologischen Bedingungen eine Äquivalenz mit freier 3-DGP erwartet werden kann.
# Das Dianhydrid der Formel II (R = H) bildet sich leicht bei Behandlung von mäßig sauren 3-DGP-Lösungen mit wasserentziehenden Mitteln, wie z.B. wasserfreiem Natriumsulfat oder Calciumsulfat, oder beim Eindampfen von wäßrigen oder organischen Lösungen von 3-DGP und Stehenlassen des wasserfreien Produktes.
# [3] = system: Escherichia coli ATCC 8739; assay: preservation test according to DAB 9, VIII, N1 (colony counts over time); format: cell-based; conditions: E. coli; for KBE nach 3 Tagen: 3 days; for KBE nach 10 Tagen: 10 days; for KBE nach 1 Tag: 1 day
# Source text: (§1) Die erfindungsgemäßen Verbindungen weisen eine bakterizide Wirksamkeit auf, wie die nachstehend angegebenen Versuchsergebnisse zeigen: Präparat: Di-deoxy-glyceropentulose-Dianhydrid 0,3 %, 1 % und 3 % Die Untersuchung wurde mit folgenden Keimen durchgeführt: Escherichia coli ATCC 8739 Pseudomonas aeruginosa ATCC 9027 Staphylococcus aureus ATCC 6538 Candida albicans ATCC 10231 Aspergillus niger ATCC 16404 Tabelle 6
# (§2) Analog Beispiel 9 wurde die bakterizide Wirksamkeit von DGP untersucht. Präparat: DGP-wässriger Sirup 0,3 %, 1 % und 3 %, Charge: 91621 Die Untersuchung wurde mit folgenden Keimen durchgeführt: Escherichia coli ATCC 8739 Pseudomonas aeruginosa ATCC 9027 Staphyloccus aureus ATCC 6538 Candida albicans ATCC 10231 Aspergillus niger ATCC 16404 Tabelle 7
# [4] = system: Pseudomonas aeruginosa ATCC 9027; assay: as above; format: cell-based; conditions: Pseud. aerug.; for KBE nach 1 Tag: 1 day; for KBE nach 3 Tagen: 3 days; for KBE nach 10 Tagen: 10 days
# Source text: as §1, §2
# [5] = system: Staphylococcus aureus ATCC 6538; assay: as above; format: cell-based; conditions: Staph. aureus; for KBE nach 1 Tag: 1 day; for KBE nach 3 Tagen: 3 days; for KBE nach 10 Tagen: 10 days
# Source text: as §1, §2
# [6] = result in words
smiles,measurement,setting,value
"[Cl][Hg][Cl] [Negativkontrolle, HgCl₂, reference compound]",Kolonienüberleben,"[1]; Negativkontrolle VI (HgCl₂), concentration not given",0%
"OC1COC2(COC3(CO2)CC(O)CO3)C1 [DGP-DA, Di-(3-deoxy-D-glyceropentulose)-dianhydrid]",Stabilität der wäßrigen Lösung,[2],leicht zum Monomeren spaltbar
same,Kolonienüberleben,[1]; Testkonzentration C (5.000 µg/ml),30 % = Wirksamkeit
same,Kolonienüberleben,[1]; Testkonzentration D (2.500 µg/ml),50 % = intermediäre Wirksamkeit
same,Kolonienüberleben,[1]; Testkonzentration E (500 µg/ml),57 % = intermediäre Wirksamkeit
same,Kolonienüberleben,"[1]; Testkonzentration F-J (250-2,5 µg/ml)",61 - 89 % = keine Wirksamkeit
same,KBE nach 3 Tagen,"[3]; Konz 0,3 %",0 KBE
same,KBE nach 10 Tagen,"[3]; Konz 0,3 %",0 KBE
same,KBE nach 1 Tag,[3]; Konz 1 %,0 KBE
same,KBE nach 3 Tagen,[3]; Konz 1 %,0 KBE
same,KBE nach 10 Tagen,[3]; Konz 1 %,0 KBE
same,KBE nach 1 Tag,[3]; Konz 3 %,0 KBE
same,KBE nach 3 Tagen,[3]; Konz 3 %,0 KBE
same,KBE nach 10 Tagen,[3]; Konz 3 %,0 KBE
same,KBE nach 1 Tag,[4]; Konz 3 %,0 KBE
same,KBE nach 3 Tagen,[4]; Konz 3 %,0 KBE
same,KBE nach 10 Tagen,[4]; Konz 3 %,0 KBE
same,KBE nach 1 Tag,"[5]; Konz 0,3 %",0 KBE
same,KBE nach 3 Tagen,"[5]; Konz 0,3 %",0 KBE
same,KBE nach 10 Tagen,"[5]; Konz 0,3 %",0 KBE
same,KBE nach 1 Tag,[5]; Konz 1 %,0 KBE
same,KBE nach 3 Tagen,[5]; Konz 1 %,0 KBE
same,KBE nach 10 Tagen,[5]; Konz 1 %,0 KBE
same,KBE nach 1 Tag,[5]; Konz 3 %,0 KBE
same,KBE nach 3 Tagen,[5]; Konz 3 %,0 KBE
same,KBE nach 10 Tagen,[5]; Konz 3 %,0 KBE
"O=C(CO)C[C@H](O)CO [DGP, 3-Deoxy-D-Glyceropentulose]",Stabilität der wäßrigen Lösung,[2],relativ instabil
same,Kolonienüberleben,"[1]; Testkonzentration C-F (5.000-250 µg/ml im Petrischälchen), % of control",0 % = Wirksamkeit
same,Kolonienüberleben,[1]; Testkonzentration F1 (200 µg/ml),"0,08 % = Wirksamkeit"
same,Kolonienüberleben,[1]; Testkonzentration F2 (152 µg/ml),10 % = Wirksamkeit
same,Kolonienüberleben,[1]; Testkonzentration F3 (100 µg/ml),44 % = intermediäre Wirksamkeit
same,Kolonienüberleben,"[1]; Testkonzentration G-J (50-2,5 µg/ml)",65 - 84 % = keine Wirksamkeit
same,KBE nach 10 Tagen,[3]; Konz 3 %,0 KBE
same,KBE nach 10 Tagen,"[4]; Konz 0,3 %",0 KBE
same,KBE nach 3 Tagen,[4]; Konz 1 %,0 KBE
same,KBE nach 10 Tagen,[4]; Konz 1 %,0 KBE
same,KBE nach 1 Tag,[4]; Konz 3 %,15 KBE
same,KBE nach 3 Tagen,[4]; Konz 3 %,0 KBE
same,KBE nach 10 Tagen,[4]; Konz 3 %,0 KBE
same,KBE nach 10 Tagen,"[5]; Konz 0,3 %",0 KBE
same,KBE nach 10 Tagen,[5]; Konz 1 %,0 KBE
same,KBE nach 3 Tagen,[5]; Konz 3 %,0 KBE
same,KBE nach 10 Tagen,[5]; Konz 3 %,0 KBE
"CCCCOC1(CO)C[C@H](O)CO1 (stereo partly drawn) [n-Butylglycosid, n-Butyl-3-Deoxy-D-Glyceropentulosid]",antiproliferative/cytotoxische Wirkung,[1],eindeutige antiproliferative/cytotoxische Wirkung
same,Löslichkeit,[6],"gut löslich in Wasser, Alkoholen und niederen Ketonen"
"COC1(CO)C[C@H](O)CO1 (stereo partly drawn) [Methylglycosid, Methyl-3-Deoxy-D-Glyceropentulosid]",antiproliferative/cytotoxische Wirkung,[1],eindeutige antiproliferative/cytotoxische Wirkung
"CCCCOC1(COC(C)=O)C[C@H](OC(C)=O)CO1 (stereo partly drawn) [Diacyl-n-butyl-glycosid, n-Butyl-1,4-Diacetyl-3-Deoxy-D-Glyceropentulosid]",antiproliferative/cytotoxische Wirkung,[1],eindeutige antiproliferative/cytotoxische Wirkung
